Data reported in ChEMBL document CHEMBL1201862, “PubChem BioAssay data set” (2004).
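48-hour exposure; five concentrations; linearly interpolated endpoints. At the GI50, growth is halved.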 Calls of active or inactive are those of the source. Rule as the data show it: active = GI50 up to about 1.1 µM and inactive = higher.

Experiments:
Assay in all cases: NCI anticancer screen, dose series, 48 h
NCI-H23 = tested on: NCI-H23
CCRF-CEM = tested on: CCRF-CEM
Hs-578T = tested on: Hs-578T
NCI-H226 = tested on: NCI-H226
HCT-116 = tested on: HCT-116
BT-549 = tested on: BT-549
PC-3 = tested on: PC-3
NCI/ADR-RES = tested on: NCI/ADR-RES
SW-620 = tested on: SW-620
A549 = tested on: A549
SNB-75 = tested on: SNB-75
SNB-19 = tested on: SNB-19
NCI-H522 = tested on: NCI-H522
SN12C = tested on: SN12C
OVCAR-3 = tested on: OVCAR-3
HCT-15 = tested on: HCT-15
SK-OV-3 = tested on: SK-OV-3
UACC-257 = tested on: UACC-257
SK-MEL-28 = tested on: SK-MEL-28
NCI-H460 = tested on: NCI-H460

Structure (SMILES)	GI50 (NCI-H23)	GI50 (CCRF-CEM)	GI50 (Hs-578T)	GI50 (NCI-H226)	GI50 (HCT-116)	GI50 (BT-549)	GI50 (PC-3)	GI50 (NCI/ADR-RES)	GI50 (SW-620)	GI50 (A549)	GI50 (SNB-75)	GI50 (SNB-19)	GI50 (NCI-H522)	GI50 (SN12C)	GI50 (OVCAR-3)	GI50 (HCT-15) [µM]	GI50 (SK-OV-3)	GI50 (UACC-257)	GI50 (SK-MEL-28)	GI50 (NCI-H460)
CC1(C)CC(=O)c2c(nc(SSc3nc4c(c(-c5ccccc5)c3C#N)C(=O)CC(C)(C)C4)c(C#N)c2-c2ccccc2)C1	> 10 µM (inactive)	> 10 µM (inactive)	> 10 µM (inactive)	> 10 µM (inactive)	> 10 µM (inactive)	> 10 µM (inactive)	> 10 µM (inactive)	> 10 µM (inactive)	> 10 µM (inactive)	> 10 µM (inactive)	> 10 µM (inactive)	> 10 µM (inactive)	> 10 µM (inactive)	> 10 µM (inactive)	> 10 µM (inactive)	> 10	> 10 µM (inactive)	> 10 µM (inactive)	> 10 µM (inactive)	> 10 µM (inactive)
N#CC1=CNc2sccc2S1(=O)=O	> 100 µM (inactive)		> 100 µM (inactive)	> 100 µM (inactive)	89.7 µM (inactive)	> 100 µM (inactive)	> 100 µM (inactive)	> 100 µM (inactive)	> 100 µM (inactive)	> 100 µM (inactive)	> 100 µM (inactive)	> 100 µM (inactive)	> 100 µM (inactive)	> 100 µM (inactive)	> 100 µM (inactive)	61.9	> 100 µM (inactive)	> 100 µM (inactive)	> 100 µM (inactive)	40.7 µM (inactive)
Cc1nc2sc3ccccc3n2c(=O)c1/N=N/c1ccc(Cl)cc1	> 100 µM (inactive)	> 100 µM (inactive)	> 100 µM (inactive)	> 100 µM (inactive)	> 100 µM (inactive)	> 100 µM (inactive)	> 100 µM (inactive)	> 100 µM (inactive)	> 100 µM (inactive)	> 100 µM (inactive)	> 100 µM (inactive)	> 100 µM (inactive)	> 100 µM (inactive)	> 100 µM (inactive)	> 100 µM (inactive)	> 100	> 100 µM (inactive)	> 100 µM (inactive)	> 100 µM (inactive)	> 100 µM (inactive)
c1ccc(/C(=N/Nc2ccncn2)c2ccccn2)cc1	17.6 µM (inactive)	1.65 µM (inactive)	0.0114 µM (active)	15.8 µM (inactive)	14.3 µM (inactive)	35.1 µM (inactive)	36.5 µM (inactive)	18.4 µM (inactive)	6.32 µM (inactive)	30.4 µM (inactive)	18.9 µM (inactive)	46.8 µM (inactive)	0.776 µM (active)	35 µM (inactive)	6.78 µM (inactive)	24.4	23.7 µM (inactive)	20.9 µM (inactive)	70.3 µM (inactive)	30.1 µM (inactive)
COc1c(C)c(OCC=C(C)C)cc(CO)c1CO	38.7 µM (inactive)	44.9 µM (inactive)	44.1 µM (inactive)	87.3 µM (inactive)	32.6 µM (inactive)	42.9 µM (inactive)	36 µM (inactive)	26.3 µM (inactive)	74.5 µM (inactive)	47.5 µM (inactive)	47.6 µM (inactive)	88.3 µM (inactive)	7.46 µM (inactive)	88.3 µM (inactive)		41.5	97.3 µM (inactive)	81.8 µM (inactive)		38.7 µM (inactive)
CC(=O)OCC1OC(n2c(C)cc(C)c(C#N)c2=S)C(OC(C)=O)C(OC(C)=O)C1OC(C)=O (stereo not given)	> 100 µM (inactive)	> 100 µM (inactive)	> 100 µM (inactive)	> 100 µM (inactive)	> 100 µM (inactive)	> 100 µM (inactive)	> 100 µM (inactive)	> 100 µM (inactive)		> 100 µM (inactive)	> 100 µM (inactive)	> 100 µM (inactive)	> 100 µM (inactive)	> 100 µM (inactive)	> 100 µM (inactive)	> 100		> 100 µM (inactive)	> 100 µM (inactive)	> 100 µM (inactive)
C=C1C(=O)CCC1C(=O)O (stereo not given)	> 100 µM (inactive)	> 100 µM (inactive)	> 100 µM (inactive)	> 100 µM (inactive)	> 100 µM (inactive)	> 100 µM (inactive)	> 100 µM (inactive)	> 100 µM (inactive)	> 100 µM (inactive)	> 100 µM (inactive)	11.8 µM (inactive)	> 100 µM (inactive)	> 100 µM (inactive)	> 100 µM (inactive)	> 100 µM (inactive)	> 100	> 100 µM (inactive)	61.8 µM (inactive)	> 100 µM (inactive)	> 100 µM (inactive)
FC(F)(F)c1cccnc1Sc1nc2ccccc2s1	80.4 µM (inactive)	> 100 µM (inactive)	45.7 µM (inactive)	2.67 µM (inactive)	> 100 µM (inactive)	> 100 µM (inactive)	> 100 µM (inactive)	> 100 µM (inactive)	> 100 µM (inactive)	> 100 µM (inactive)	59.6 µM (inactive)	> 100 µM (inactive)	80 µM (inactive)	> 100 µM (inactive)	11.3 µM (inactive)	> 100		> 100 µM (inactive)	> 100 µM (inactive)	> 100 µM (inactive)
CCOC(=O)NCC(=O)NCC(=O)NCC(N)=O	> 100 µM (inactive)	> 100 µM (inactive)	> 100 µM (inactive)	> 100 µM (inactive)	> 100 µM (inactive)	> 100 µM (inactive)	> 100 µM (inactive)	> 100 µM (inactive)	> 100 µM (inactive)	> 100 µM (inactive)		> 100 µM (inactive)	> 100 µM (inactive)		> 100 µM (inactive)	> 100	> 100 µM (inactive)	> 100 µM (inactive)	> 100 µM (inactive)	
Nc1ccc(-c2nc3ccccc3s2)cc1C#Cc1ccccc1	20.9 µM (inactive)	29.2 µM (inactive)	21.5 µM (inactive)	20.1 µM (inactive)	14.4 µM (inactive)	17.1 µM (inactive)	18.5 µM (inactive)	21.4 µM (inactive)	17.8 µM (inactive)	22.6 µM (inactive)	25.3 µM (inactive)	22.3 µM (inactive)	18.9 µM (inactive)	18.8 µM (inactive)	15.5 µM (inactive)	17.9	24.3 µM (inactive)	16 µM (inactive)		17 µM (inactive)
COc1ccc(N(C(=O)Nc2ccc(Cl)c(Cl)c2)c2ccccc2)cc1	> 10 µM (inactive)	> 10 µM (inactive)	> 10 µM (inactive)	> 10 µM (inactive)	> 10 µM (inactive)	> 10 µM (inactive)	> 10 µM (inactive)	> 10 µM (inactive)	> 10 µM (inactive)	> 10 µM (inactive)		> 10 µM (inactive)	> 10 µM (inactive)	> 10 µM (inactive)	> 10 µM (inactive)	> 10	> 10 µM (inactive)	> 10 µM (inactive)	> 10 µM (inactive)	> 10 µM (inactive)
O=C1C2=Cc3ccccc3CCN2c2ccccc21	> 59.6 µM (inactive)	13.6 µM (inactive)	41 µM (inactive)	13.9 µM (inactive)	21.3 µM (inactive)	13.8 µM (inactive)	35.2 µM (inactive)	30.1 µM (inactive)	20.4 µM (inactive)	49.2 µM (inactive)	> 100 µM (inactive)	46 µM (inactive)	40.2 µM (inactive)	18.8 µM (inactive)	91.4 µM (inactive)	25.6		27.2 µM (inactive)	> 49.9 µM (inactive)	21.2 µM (inactive)
CC(=O)C1=C(c2ccccc2)N(C2OC(CO)C(O)C(O)C2O)C(S)=C(C#N)C1c1ccc(Cl)cc1 (stereo not given)	36 µM (inactive)	34.8 µM (inactive)	25.8 µM (inactive)	20.7 µM (inactive)	16 µM (inactive)	15.9 µM (inactive)	22.1 µM (inactive)	31.4 µM (inactive)	8.53 µM (inactive)	39.4 µM (inactive)	28.8 µM (inactive)	34.9 µM (inactive)	23.7 µM (inactive)	38.5 µM (inactive)	21.6 µM (inactive)	23		25.4 µM (inactive)	20.7 µM (inactive)	21.9 µM (inactive)
COc1ccc(/[N+]([O-])=C/c2ccccc2OC(=S)S)cc1	27.7 µM (inactive)		33.7 µM (inactive)	30.8 µM (inactive)	25.5 µM (inactive)	23.2 µM (inactive)	39.3 µM (inactive)	28.1 µM (inactive)	39.8 µM (inactive)	> 100 µM (inactive)	62.4 µM (inactive)	51.3 µM (inactive)	25.1 µM (inactive)	24.5 µM (inactive)	28.4 µM (inactive)	30.6	86.1 µM (inactive)	29 µM (inactive)	72.8 µM (inactive)	45.1 µM (inactive)
COC(=O)/C=C/[C@H]1[C@H](C)N1S(=O)(=O)c1ccc(C)cc1 (stereo not given in full)	74.3 µM (inactive)	> 100 µM (inactive)	> 100 µM (inactive)	> 100 µM (inactive)	41.8 µM (inactive)	> 100 µM (inactive)	> 100 µM (inactive)	> 100 µM (inactive)	80.4 µM (inactive)	> 100 µM (inactive)		> 100 µM (inactive)	48.6 µM (inactive)	> 100 µM (inactive)	58.7 µM (inactive)	> 100	> 100 µM (inactive)	> 100 µM (inactive)	> 100 µM (inactive)	> 100 µM (inactive)
